For assay [1], the target named is HLA-A*3002 (Homo sapiens, UniProt P04439, D101N/D140H/D185E/E176R/F33S/G80R/H175R/K168Q/Q94H/R138E/R41S/V100E). Kind of assay: biochemical. It counts as binding.
The target in assay [2] is HLA-A*2902 (Homo sapiens, UniProt P04439, A270S/D101N/D185E/E176V/E277Q/E87Q/F33T/G231S/H175R/I121M/I218V/I322F/K168Q/L300P/L318F/M331R/P208A/P217A/Q86L/T323A/T345S/V100A/V358M). Put plainly: MHC molecular binding / Capture assay, IC50: A*2902.
Assay [3] addresses HLA-A*6802 (Homo sapiens, UniProt P04439, A269V/D140Y/D185E/E176V/E277Q/E87N/F33Y/G231S/I121R/I166T/I218V/L180W/L300P/L318F/N151K/P208A/P217A/Q86R/R138H/R169H/S129P/T345S/V36M). Kind of assay: biochemical. It is filed as binding.
Assay [4] addresses HLA-A*0202 (Homo sapiens, UniProt P04439, D140Y/D185E/D98H/E176V/E277Q/G131W/G231S/I119L/I121R/I166T/I218V/L180W/L300P/L318F/N151K/N90K/P208A/P217A/Q67R/Q86G/Q94H/R138H/R169H/T345S). Put plainly: biochemical. It counts as binding.
Assay [5] concerns the target HLA-A*0206 (Homo sapiens, UniProt P04439, D140Y/D185E/D98H/E176V/E277Q/F33Y/G131W/G231S/I119V/I121R/I166T/I218V/L300P/L318F/N151K/N90K/P208A/P217A/Q86G/Q94H/R138H/R169H/T345S). Kind of assay: biochemical. It counts as binding.
For assay [6], the target named is HLA-A*0203 (Homo sapiens, UniProt P04439, A173T/D140Y/D185E/D98H/E277Q/G131W/G231S/I119V/I121R/I166T/I218V/L180W/L300P/L318F/N151K/N90K/P208A/P217A/Q86G/Q94H/R138H/R169H/T345S). Kind of assay: biochemical. The conditions noted are these: A*0203 binding affinity (expressed as an IC50). It is filed as binding.
In assay [7] the target is HLA-DR DRB1*0101 (DR1) (Homo sapiens, UniProt P01903+P01911, A100R/D57E/F55L/F60I/F76Y/I96L/L162R/M171V/P40L/Q125E/R42F/V115G/Y59C). Kind of assay: biochemical. It counts as binding. As to conditions: DRB1 *0101.
Assay [8] concerns the target HLA-DR DRB1*0301 (DR3) (Homo sapiens, UniProt P01903+P01911, A100K/A102G/A103R/A169T/F55Y/I96L/K41T/L162R/M171V/P40S/Q125H/Q178H/Q39Y/R42S/S66N/T106N/T262R/W38E/Y61H). Put plainly: biochemical. It is filed as binding.
Assay [9] addresses HLA-DR DRB1*0401 (DR4) (Homo sapiens, UniProt P01903+P01911, A100K/A169T/F76Y/I96L/K127E/L162R/M171V/N62H/P40V/Q125Y/R42H/S133A/S149N/S66Y/V115G/V209L/W38E). Kind of assay: biochemical. It is filed as binding. The conditions noted are these: DRB1 *0401.
In assay [10] the target is HLA-DR DRB1*0405 (DR4) (Homo sapiens, UniProt P01903+P01911, A100R/A169T/D86S/F76Y/I96L/K127E/L162R/M171V/N62H/P40V/Q125Y/R42H/S133A/S149N/S66Y/V115G/V209L/W38E). Put plainly: biochemical. It counts as binding. As to conditions: DRB1 *0405.
The target of assay [11] is HLA-DR DRB1*0701 (DR7) (Homo sapiens, UniProt P01903+P01911, A100R/A102G/A103Q/D57E/D86V/E43K/F76Y/K127E/L162R/M171V/P40G/Q125H/Q99D/R33Q/R42Y/R54Q/S133A/S66F/T210M/V115G/Y107V/Y59L/Y89S). Put plainly: biochemical. The conditions noted are these: DRB1 *0701. It is filed as binding.
Assay [12] concerns the target HLA-DR DRB1*0802 (DR8) (Homo sapiens, UniProt P01903+P01911, A100R/A103L/A169T/F76Y/H45Y/I96F/K41T/L162R/M171V/P40S/Q125H/Q178H/Q39Y/Q99D/R218S/R42G/S66Y/V115G/W38E). Kind of assay: biochemical. It counts as binding.
Assay [13] addresses HLA-DR DRB1*0901 (DR9) (Homo sapiens, UniProt P01903+P01911, A100R/A103E/D57H/D86V/F55Y/F60I/F76Y/I96F/K127E/L162R/M171V/P40D/Q125H/Q99R/R33Q/R42F/S133A/S66N/T210M/V115G/W38K/Y107V/Y59G/Y89S). Kind of assay: biochemical. It is filed as binding. The conditions noted are these: DRB1 *0901.
Assay [14] deals with HLA-DR DRB1*1101 (DR11) (Homo sapiens, UniProt P01903+P01911, A100R/A169T/A87E/I96F/K41T/L162R/M171V/P40S/Q125H/Q178H/Q39Y/Q99D/R42S/S66Y/T262R/V115G/W38E). Kind of assay: biochemical. The conditions noted are these: DRB1 *1101. It counts as binding.
Chain of HLA-DR DRB1*1101 (DR11) (P01903 26-254 limits assumed, other chains not shown): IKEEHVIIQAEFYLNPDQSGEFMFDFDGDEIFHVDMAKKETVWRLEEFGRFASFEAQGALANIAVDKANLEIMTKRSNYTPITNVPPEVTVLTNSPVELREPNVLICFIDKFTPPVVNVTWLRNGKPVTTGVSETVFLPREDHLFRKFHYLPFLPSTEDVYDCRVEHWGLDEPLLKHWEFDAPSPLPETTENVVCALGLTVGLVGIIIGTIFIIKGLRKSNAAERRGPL
In assay [15] the target is HLA-DR DRB1*1302 (DR13) (Homo sapiens, UniProt P01903+P01911, A100E/A169T/K41T/L162R/M171V/P40S/Q125H/Q178H/Q39Y/Q99D/R42S/S66N/T262R/V115G/W38E/Y61H). Put plainly: biochemical. It counts as binding. As to conditions: DRBI *1302.
Chain of HLA-DR DRB1*1302 (DR13) (P01903 26-254 limits assumed, other chains not shown): as above
Assay [16] deals with HLA-DR DRB1*1501 (DR15) (Homo sapiens, UniProt P01903+P01911). Kind of assay: biochemical. It counts as binding. The conditions noted are these: DRBI *1501.
For assay [17], the target named is HLA-DR DRB3*0101 (DR52) (Homo sapiens, UniProt P01903+P79483). Kind of assay: biochemical. It counts as binding.
Assay [18] deals with HLA-DR DRB4*0101 (DR53) (Homo sapiens, UniProt P01903+P13762, G164S). Kind of assay: biochemical. It is filed as binding. As to conditions: DRB4 *0101.
Assay [19] addresses HLA-DR DRB5*0101 (DR51) (Homo sapiens, UniProt P01903+Q30154). Put plainly: biochemical. It counts as binding. The conditions noted are these: DRB5 *0101.
Where [20] appears, read: Binding affinity to A*2902 (expressed as an IC50).
Where [21] appears, read: Binding affinity to A*3002 (expressed as an IC50).
Where [22] appears, read: A*6802 binding affinity (expressed as an IC50).

Read-outs that look alike come from different tables or passages of the source. No end group written: not given here.

Chain of HLA-DR DRB1*0301 (DR3) (P01903 26-254 limits assumed, other chains not shown): as above

Turning to PVDPNLEPY, in assay [1], half-maximal inhibition (IC50) required 7.12 µM.
As for LFVVYRDSF, the IC50 (usually the concentration at which inhibition is half-maximal) in assay [2] is 0.919 µM; in assay [1], 0.018 µM.
The molecule FGVRPQVPL registered an IC50 in [3] of 0.321 µM.
Consider FLKEKGGV, for which the IC50 in assay [4] was 0.653 µM; in assay [5], > 14.3 µM; in assay [3] it was > 19.5 µM.
Regarding ITEYRHYNY, the IC50 in assay [1] was 0.418 µM.
On to FVSSIFISFY, for which the results for the IC50 in [2] (setting [20]) and in assay [1] (setting [21]) were 0.022 µM and 0.084 µM, respectively.
Turning to MTGNPAIPV, in [6], the IC50 is 0.01 µM.
Take `CC[C@H](C)[C@H](NC(=O)[C@H](CCC(=O)O)NC(=O)[C@H](CC(C)C)NC(=O)[C@H](C)NC(=O)[C@H](CO)NC(=O)[C@H](CO)NC(=O)[C@H](CC(C)C)NC(=O)[C@@H](N)CCC(=O)O)C(=O)N1CCC[C@H]1C(=O)N[C@@H](Cc1ccc(O)cc1)C(=O)O`: the 50% inhibitory concentration (IC50) was determined as 6.03 µM in [2] (setting [20]) and 4.47 µM in [1] (setting [21]).
In [1], CYSLYGTTF returned an IC50 of 7.82 µM.
For `CC(C)C[C@H](NC(=O)[C@H](C)NC(=O)[C@H](CO)NC(=O)[C@H](C)NC(=O)[C@@H](NC(=O)[C@H](CC(=O)O)NC(=O)[C@H](CC(C)C)NC(=O)[C@H](CC(C)C)NC(=O)[C@@H](N)CC(=O)O)[C@@H](C)O)C(=O)N[C@@H](Cc1ccc(O)cc1)C(=O)O`, the IC50 in assay [2] (setting [20]) worked out at 0.074 µM.
With VCGERGFFYTPKTRR, the IC50 in assay [7] is 9.62 µM; in assay [8] it was 1.99 µM; in [9] it was > 20.5 µM; in assay [10] it was > 15.1 µM; in assay [11] it was 5.49 µM; in assay [12], 0.419 µM. In addition, the IC50 is 14.4 µM in [13]; 3.82 µM in assay [14]; 34.7 µM in assay [15]; > 25.6 µM in assay [16]; 17.4 µM in assay [17]; > 31 µM in [18]. Moreover, the IC50 in assay [19] turned out to be 0.092 µM.
Turning to KTYGGPGPGY, the IC50 in assay [2] (setting [20]) amounted to 0.228 µM; in assay [1] (setting [21]), 0.0017 µM.
In the case of AYGPGPGKI, the results for the IC50 in assay [2] (A*2902 binding affinity (IC50)) and in assay [1] (A*3002 binding affinity (IC50)) were > 156 µM and 5.43 µM, respectively.
As to ITYSAHDTTV, the IC50 in [3] (setting [22]) is 0.082 µM.
KLQTYPRTNTGSGTP: the IC50 in assay [7] is > 10.1 µM; in assay [8], > 205 µM; in [9], > 26.5 µM; in [10] it was > 9.81 µM; in assay [11] it was > 99.2 µM; in assay [12], > 51.6 µM. Besides, the IC50 in assay [13] is > 29.2 µM; in [14], 8.21 µM; in [15] it was 0.987 µM; in assay [16], 0.52 µM; in assay [17] it was > 263 µM; in assay [18], > 105 µM. The IC50 in [19] was > 14 µM.
Regarding QAAESNERY, the figures for the IC50 in [2] (setting [20]) and in assay [1] (setting [21]) were 24.3 µM and 3.01 µM, respectively.
On to MTHNPPIPV, for which the IC50 was determined as 0.0014 µM in assay [6], 0.158 µM in assay [5] (A*0206 binding affinity (expressed as an IC50)) and 0.0014 µM in assay [3] (setting [22]).

The values are drawn from patent publication US20060079453A1, “Hla binding peptides and their uses” (priority 2002, published 2006).
